{"source": "patent US20120077685A1", "about": "“INTRATUMORAL GENE EXPRESSION LEVELS OF TP AND VEGF ARE ASSOCIATED WITH CLINICAL OUTCOMES IN RECTAL CANCER PATIENTS TREATED WITH 5-FLUOROURACIL AND PELVIC RADIATION” (University of Southern California, priority 2010, published 2012)", "key": {"[1]": {"system": "stage II/III rectal cancer", "conditions": "neo-adjuvant or adjuvant 5-FU and radiation therapy; cited from earlier work"}, "[2]": {"system": "stage II/III rectal cancer", "assay": "Phase III trial (INT-0144, S9304) of 5-FU and radiation: disease-free survival by intratumoral gene expression tertile", "format": "in vivo, human", "method": "Methods: A total of 422 stage II/III rectal patients from a phase III trial (INT-0144, […]) of three regimens of 5-FU and radiation were available for gene expression assays. mRNA was extracted from laser-capturemicrodissected tumor tissue. cDNA was prepared by reverse transcription and quantitation of the candidate genes was performed using a fluorescence-based real-time detection method. The gene expression data were analyzed by splitting the expression data into three (tertiles) groups using 33rd and 66th percentile."}}, "data": [{"smiles": "O=c1[nH]cc(F)c(=O)[nH]1", "note": "[5-FU, 5-fluorouracil]", "values": [{"measurement": "overall 5-year survival rate", "setting": "[1]", "value": "approximately 50%"}, {"measurement": "three year DFS", "setting": "[2]; patients with high TP gene expression (tertile)", "value": 79, "unit": "%"}, {"measurement": "three year DFS", "setting": "[2]; patients with high VEGF gene expression (tertile)", "value": 65, "unit": "%"}, {"measurement": "three year DFS", "setting": "[2]; patients with low TP gene expression (tertile)", "value": 65, "unit": "%"}, {"measurement": "three year DFS", "setting": "[2]; patients with low VEGF gene expression (tertile)", "value": 77, "unit": "%"}, {"measurement": "three year DFS", "setting": "[2]; patients with median TP gene expression (tertile)", "value": 67, "unit": "%"}, {"measurement": "three year DFS", "setting": "[2]; patients with median VEGF gene expression (tertile)", "value": 69, "unit": "%"}]}]}
